Laboratory results: US20220370471A1, “COMPOSITION AND METHOD FOR TREATMENT OF HIPPOCAMPAL SYNAPSE DYSFUNCTION AND COGNITIVE DEFICITS IN ALZHEIMER'S DISEASE” (BOARD OF REGENTS, THE UNIVERSITY OF TEXAS SYSTEM, priority 2019, published 2022)

Key:
hippocampal neurons = assay: Synaptic density (vGLUT1/PSD95) in cultured hippocampal neurons; type: cell-based, mouse
Experimental: (§1) Immunocytochemistry. […] NIS element software was used for image analysis. “Objective Count” dialog was used for intensity measurement. […] The overlapped dots represent synapses.
Primary hippocampal neuron culture. Hippocampal neuron cultures were prepared as previously described (15). In brief, mouse hippocampi were dissected from postnatal day 0-1 pups in cold HBSS. Cells were dissociated by using 0.025% trypsin at 37° C. for 15 minutes, followed by 10 times homogenization in ice cold DMEM. Dissociated cells were then passed through a 100 μm cell strainer (Corning) and centrifuged for 5 minutes at 210×g. The pellet was gently resuspended in neuron culture medium (Neurobasal A with 2% B27 supplement, 0.5 mM L-glutamine, Invitrogen) and plated on poly-D-lysine (Sigma-Aldrich) coated Lab-Tek chamber slides (Nunc, 177445) with appropriate densities.
Agonist treatment on primary cultured neurons. At 14 days in vitro (DIV14) hippocampal neurons were exposed to the synthetic growth hormone secretagogue receptor agonist MK0677 (Tocris, #5272, 1.5 μM) the dopamine D1-like receptor agonist SKF81297 (Sigma-Aldrich, #S143, 2 μM) or a mixture of MK0677 and SKF81297 for 5 minutes. The exposure was followed by immunostaining to examine the effects of Ghsr1α/Drd1 co-activation on Aβ induced synaptic loss or Ghsr1α/Drd1, Aβ/Ghsr1α interaction as described in previous sections.

5×FAD mice [1] = assay: Morris water maze test; details: MK0677 1.5 mg/kg, daily i.p., one month
Experimental: Mice and agonist treatment. […] Mice were used in pairs of age-matched non-transgenic mice (non-TG). Genotypes of animals were confirmed using PCR and/or amyloid plaque staining. The number of mice used was determined by previous data and calculations to ensure that the minimal number of mice as required was used in these experiments. […] Mouse body weight was recorded every five days until euthanasia. After the 1-month treatment, the mice were subjected to the Morris water maze behavioral test and then euthanized for tissue collection following IACUC-approved procedures.
Mouse behavioral test. The Morris water maze test was performed as previously described in order to test changes in mouse spatial learning and memory [3, 50]. Mice were randomly grouped by gender, genotypes and treatments (which the experimenter was blind to) and then transferred to the testing environment at least 0.5 hours before tests. During the test, mice were trained to find a hidden platform (20 cm diameter) in an open swimming pool (200 cm diameter) filled with 21° C. water (non-toxic white dye was used to hide the platform). Four trials were performed each day for 12 days. Each trial started at a different position (NW, N, E, SE) while the platform was kept in the same location (SW). […] Probe results were analyzed using the platform location crossed frequency value.

patients with AD = details: clinical trial; cited from earlier work
5×FAD mice [2] = assay: Survival of mice under daily MK0677 i.p. injection; type: in vivo, mouse; details: 30 days
Experimental: To determine whether MK0677 mitigates hippocampal lesions in 5×FAD mice, the inventor first sought to determine the optimal dose of MK0677. 5×FAD mice at 3 months old received either saline or MK0677 at 1.5 or 3 mg/kg via daily i.p. injection for 30 days (FIGS. 12a). 5×FAD mice at 3 months old have little to no hippocampal lesions and indiscernible behavioral change, both of which become prominent at 4 months of age (the endpoint of treatment). The doses of MK0677 were chosen based on previous studies. […] The inventor therefore selected 5×FAD mice that received the 1.5 mg/kg dose of MK0677 for biological response assays. Next, he examined the impact of MK0677 treatment on hippocampal Aβ deposition in 5×FAD mice. To this end, immunofluorescent staining using the specific antibody against Aβ was performed to visualize Aβ plaques.
Mice and agonist treatment.

5×FAD mice [3] = details: recent study, higher dose of MK0677; cited from earlier work
Ghsr1α = target: T1, Ghsr1α (Mus musculus, UniProt Q99P50, INS247CCPGCC); assay: FlAsH-based FRET assay of Ghsr1α activity in HEK 293T cells; type: cell-based; details: 50 μM; Ghsr1α FlAsH/ECFP-expressing HEK 293T cells
T1 construct: Mouse full length Ghsr1α cDNA (NCBI Gene ID: 208188) was purchased from OriGene (MR226073); expressed in transfected cells; host or cells: HEK 293T
Text: FlAsH-based FRET was created by structural dynamics of Ghsr1α with FlAsH in the intercellular loop 3 and enhanced cyan fluorescent protein (ECFP) in the C-terminus (Ghsr1α^FlAsH/ECFP).
FlAsH-based FRET. […] The CCPGCC motif which has higher binding affinity for FlAsH was inserted in the third intracellular loop between Va1247 and Gly248 of Ghsr1α cDNA or between Thr245 and Gly246 of Drd1 cDNA. […] Fluorescence signals were monitored on microplate reader (BioTek Cytation 5) before and after the treatments. […] Area scanning read mode was used to correct artificial inaccuracies. The FRET ratio (FFlAsH/FECFP) was calculated according to equation as previously reported (69):
The terms a and b are correction factors for the two leakages mentioned above. a is the ratio of the direct emission of donor, ECFP at 535 nm, to its emission at 475 nm when excited at 425 nm which was calculated with cells transfected with pcDNA3-Ghsr1α^FlAsH/ECFP or pcDNA3-Drd1^FlAsH/ECFP only. b is the ratio of the direct emission of FlAsH at 535 nm when excited at 425 nm to its emission at 535 nm when excited at 500 nm which was calculated with FlAsH labeled untransfected cells.

5×FAD mice [4] = assay: Microglia density, morphology and plaque-associated microglia analysis; type: in vivo, mouse
Experimental: Immunocytochemistry. Frozen sections were prepared as previously described. […] Nuclei were labeled with 4′,6-diamidino-2-phenylindole (DAPI, Thermo Fisher Scientific, #R37606, 1 drop/500 ul) as needed. Images were collected on a Nikon confocal microscope. Microglia morphology and plaque-associated microglia density analysis. Analysis of microglia morphology was done by producing three-dimensional (3D) reconstructions of cells using Imaris software (Bitplane, Imaris×64 9.0.2)[49]. Using the Filament algorithm, the software was able to calculate the length of each cell dendrite and number of branch points. This was done by first selecting the appropriate region of interest for the desired cell. If there were nearby cells, the somas of those cells were included in the region of interest. Since the software builds the dendrites based on extension from the largest set diameter, doing this can prevent unwanted filaments bridging the dendrites of two or more cells. The dendrite diameter parameters were set with the largest diameter being the soma size and the smallest diameter at 0.5 μm. To further prevent unwanted connections, the option to ‘Remove disconnected segments’ was used in the dendrite building menu with the distance threshold set at 5 μm. After the algorithm finished detecting the dendrites, non-specifically detected filaments were manually trimmed. Dendrite length and branch points were then calculated by the software. Plaque-associated microglia density was analyzed by using NIS element software. Microglia were counted under the following rule: if more than 50% of the microglia soma was within a plaque, it was counted as one plaque-associated microglia. Plaque volume was analyzed as described in the previous section (amyloid plaque deposition analysis).

Aβ/Ghsr1α complex = target: T2, Aβ/Ghsr1α complex (Mus musculus, UniProt Q99P50); assay: Duolink PLA of Aβ/Ghsr1α complex in cultured hippocampal neurons; type: cell-based; details: oligomeric Aβ42 1 μM, 24 hours; 1.5 μM MK0677, 2 μM SKF81297, or in combination
T2 construct: endogenous in cells; host or cells: primary mouse hippocampal neurons; Aβ42 peptide purchased (GenicBio, A-43-T-1000)
Text: Duolink In Situ Proximity Ligation Assay (PLA). […] PLA analysis was referred to previous report (66 67). NIH Image J was used for PLA signal quantification.
Agonist treatment on primary cultured neurons. […] The exposure was followed by immunostaining to examine the effects of Ghsr1α/Drd1 co-activation on Aβ induced synaptic loss or Ghsr1α/Drd1, Aβ/Ghsr1α interaction as described in previous sections.

5×FAD mice [5] = assay: Neurogenesis (DCX staining) in the dentate gyrus; type: in vivo, mouse; details: MK0677 1.5 mg/kg, daily i.p., one month
Experimental: as §1
Neurogenesis analysis. Neurogenesis in the hippocampal dentate gyms (DG) area was presented by performing doublecortin (DCX) staining in fixed brain slices as previously described. DCX-positive (DCX^+) cell number was counted manually. The DG area was measured using NIS element software. DCX cell density was calculated by dividing the DCX cell number by the DG area to evaluate neurogenesis.

[6] = MK0677 1.5 mg/kg, daily i.p., one month
[7] = saline- vs MK0677-treated 5×FAD mice

T1 sequence (Q99P50 with tags, fused parts or gaps INS247CCPGCC): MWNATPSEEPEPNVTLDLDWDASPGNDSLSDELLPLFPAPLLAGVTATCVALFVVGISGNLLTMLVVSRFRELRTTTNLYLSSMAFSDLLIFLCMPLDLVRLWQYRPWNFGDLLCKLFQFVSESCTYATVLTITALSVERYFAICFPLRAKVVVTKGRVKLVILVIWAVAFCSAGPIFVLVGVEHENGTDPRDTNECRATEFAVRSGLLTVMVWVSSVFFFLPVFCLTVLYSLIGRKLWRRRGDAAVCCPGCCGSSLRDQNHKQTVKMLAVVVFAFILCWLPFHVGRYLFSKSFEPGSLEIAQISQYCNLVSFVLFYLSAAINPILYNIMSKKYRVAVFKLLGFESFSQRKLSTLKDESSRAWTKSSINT
T2 sequence (Q99P50 whole entry): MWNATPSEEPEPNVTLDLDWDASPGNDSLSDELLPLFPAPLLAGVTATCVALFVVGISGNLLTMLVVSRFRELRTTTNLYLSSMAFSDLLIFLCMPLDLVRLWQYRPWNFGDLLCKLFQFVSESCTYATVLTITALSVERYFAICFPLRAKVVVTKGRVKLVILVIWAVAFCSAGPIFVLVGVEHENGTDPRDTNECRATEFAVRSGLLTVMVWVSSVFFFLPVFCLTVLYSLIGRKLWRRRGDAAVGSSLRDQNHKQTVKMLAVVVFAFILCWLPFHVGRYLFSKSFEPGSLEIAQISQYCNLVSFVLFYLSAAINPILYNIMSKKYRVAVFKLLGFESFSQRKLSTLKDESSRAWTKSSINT
T2 sequence (Q61616 whole entry, further chain): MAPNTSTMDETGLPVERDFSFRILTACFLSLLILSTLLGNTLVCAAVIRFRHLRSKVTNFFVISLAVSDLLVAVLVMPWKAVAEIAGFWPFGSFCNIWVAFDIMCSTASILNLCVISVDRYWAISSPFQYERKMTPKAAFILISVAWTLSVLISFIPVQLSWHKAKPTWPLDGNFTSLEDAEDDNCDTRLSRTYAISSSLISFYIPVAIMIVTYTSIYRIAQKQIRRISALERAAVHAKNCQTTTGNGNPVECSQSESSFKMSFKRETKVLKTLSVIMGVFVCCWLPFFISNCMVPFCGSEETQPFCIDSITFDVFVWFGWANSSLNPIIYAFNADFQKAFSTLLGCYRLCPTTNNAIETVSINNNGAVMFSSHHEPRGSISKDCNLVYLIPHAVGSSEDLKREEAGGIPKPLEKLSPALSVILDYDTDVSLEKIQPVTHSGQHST

CC(C)(N)C(=O)N[C@H](COCc1ccccc1)C(=O)N1CCC2(CC1)CN(S(C)(=O)=O)c1ccccc12 [MK0677]
synaptic density / oligomeric Aβ42-induced synapse loss (hippocampal neurons; oligomeric Aβ42 1 μM, 24 hours, 1.5 μM MK0677, 2 μM SKF81297, or in combination): did not mitigate
synaptic density, agonist alone (hippocampal neurons; without oligomeric Aβ42, MK0677 at doses greater than 1.5 μM, SKF81297 2 μM): substantially promoted synaptic formation
spatial reference learning and memory (genotypic cognitive impairment) (5×FAD mice [1]): failed to show any protective effect
clinical benefits in patients with AD (patients with AD): failed to show clinical benefits
5×FAD mouse survival vs saline (5×FAD mice [2]; MK0677 1.5 mg/kg): little effect
mortality of 5×FAD mice (5×FAD mice [2]; MK0677 3 mg/kg): significantly increased the mortality
neocortical Aβ plaques in young 5×FAD mice (5×FAD mice [3]): lowered neocortical Aβ plaques
FRET ratio (FFlAsH/FECFP), agonist-induced Ghsr1α activation (Ghsr1α): induced a decrease in FRET ratio
increased microglial density in the hippocampus, 5×FAD mice (5×FAD mice [4]; [6]): not prevented
microglia density, non-TG saline vs MK0677 (5×FAD mice [4]; [6]): no significant difference
density of plaque-associated microglia, neocortex (5×FAD mice [4]; MK0677-treated 5×FAD mice): failed to show any influence
density of total microglia, neocortex (5×FAD mice [4]; MK0677-treated 5×FAD mice): failed to show any influence
density of plaque-associated microglia, hippocampus (5×FAD mice [4]; [7]): no significant difference
microglia length of total process (5×FAD mice [4]; [7]): no significant difference
microglia number of branch points (5×FAD mice [4]; [7]): no significant difference
Aβ/Ghsr1α complex formation (Aβ/Ghsr1α complex): not MK0677 or SKF81297 alone
DCX+ cells, non-TG saline vs non-TG MK0677 (5×FAD mice [5]): no significant difference
DCX-positive cells in dentate gyri, 5×FAD mice (5×FAD mice [5]): remarkably augmented number of DCX-positive cells
DCX-positive cells, Ghsr null mice (5×FAD mice [5]): no response
